# Source: PMC4503722, “Novel Phenotypic Outcomes Identified for a Public Collection of Approved Drugs from a Publicly Accessible Panel of Assays” (PLoS ONE, 2015)
# Where two headings read alike, the source gives them in different places.
# Legend:
# [1] = tested on: endothelial tube formation in co-cultures of ECFCs and ADSCs treated with VEGF; assay: cells; type: cell-based, human
# NCI-H716 cells = assay: cells; type: cell-based, Human
# STC-1 cell line = type: cell-based, mouse
# DLD-1 = assay: cells; type: cell-based
# SW480 = assay: cells; type: cell-based
# HCT116 = assay: cells; type: cell-based
# [2] = tested on: HCT116 cells treated with a GSK3β inhibitor; assay: cells; type: cell-based; details: for GSK3b inh pretreated_Viability ATP HCT116 IC50/EC50: assay number 26, GSK3b inhibitor pretreated
# Colo320 = assay: cells; type: cell-based
# HT-29 = assay: cells; type: cell-based
# RKO = assay: cells; type: cell-based
# SNU-C1 = assay: cells; type: cell-based
# [3] = tested on: ECFC/ADSC co-culture cell nuclei number
smiles,measurement,setting,value
CN1CCN(CCCN2c3ccccc3Sc3ccc(C(F)(F)F)cc32)CC1.Cl.Cl [NCGC00186653-01],"IC50/EC50, VEGF_ADSC\ECFC Angio CD31 TubeArea (assay number 2)",[1],> 10 µM
same,"IC50/EC50, hNCI-H716 GLP1 Secretion (assay number 12)",NCI-H716 cells,> 40 µM
same,"IC50/EC50, mSTC-1 GLP1 Secretion (assay number 13)",STC-1 cell line,> 40 µM
same,"IC50/EC50, Basal_Viability ATP DLD-1 (assay number 23)",DLD-1,7.3544 µM
same,"IC50/EC50, Basal_Viability ATP SW480 (assay number 24)",SW480,2.723 µM
same,"IC50/EC50, Basal_Viability ATP HCT116 (assay number 25)",HCT116,7.225 µM
same,"IC50/EC50, GSK3b inh pretreated_Viability ATP HCT116 (assay number 26)",[2],3.234 µM
same,"IC50/EC50, Basal_Viability ATP Colo 320 (assay number 27)",Colo320,2.3611 µM
same,"IC50/EC50, Basal_Viability ATP HT-29 (assay number 28)",HT-29,2.8136 µM
same,"IC50/EC50, Basal_Viability ATP RKO (assay number 29)",RKO,0.5653 µM
same,"IC50/EC50, Basal_Viability ATP SNU-C1 (assay number 30)",SNU-C1,2.6302 µM
same,"IC50/EC50, VEGF_ADSC\ECFC Angio Hoechst NucArea (assay number 3)",[3],> 10 µM
OCCN1CCN(CC/C=C2/c3ccccc3Sc3ccc(C(F)(F)F)cc32)CC1 [NCGC00162179-08],"IC50/EC50, hNCI-H716 GLP1 Secretion (assay number 12)",NCI-H716 cells; concentration response,32.1555 µM
same,"IC50/EC50, mSTC-1 GLP1 Secretion (assay number 13)",STC-1 cell line; concentration response,> 40 µM
same,"IC50/EC50, Basal_Viability ATP DLD-1 (assay number 23)",DLD-1; basal,1.467 µM
same,"IC50/EC50, Basal_Viability ATP SW480 (assay number 24)",SW480; basal,3.928 µM
same,"IC50/EC50, Basal_Viability ATP HCT116 (assay number 25)",HCT116; basal,4.577 µM
same,"IC50/EC50, GSK3b inh pretreated_Viability ATP HCT116 (assay number 26)",[2]; GSK3b inh pretreated,2.894 µM
same,"IC50/EC50, Basal_Viability ATP Colo 320 (assay number 27)",Colo320; basal,2.3138 µM
same,"IC50/EC50, Basal_Viability ATP HT-29 (assay number 28)",HT-29; basal,1.808 µM
same,"IC50/EC50, Basal_Viability ATP RKO (assay number 29)",RKO; basal,0.3178 µM
same,"IC50/EC50, Basal_Viability ATP SNU-C1 (assay number 30)",SNU-C1; basal,1.035 µM
O=C(Nc1ccc(Oc2ccc(Cl)cc2)c(Cl)c1)c1cc(I)cc(I)c1O [NCGC00160556-02],VEGF_ADSC\ECFC Angio CD31 TubeArea IC50/EC50,[1],> 10 µM
same,hNCI-H716 GLP1 Secretion IC50/EC50,NCI-H716 cells,> 40 µM
same,mSTC-1 GLP1 Secretion IC50/EC50,STC-1 cell line,1.3019 µM
same,Basal_Viability ATP DLD-1 IC50/EC50,DLD-1,0.0084 µM
same,Basal_Viability ATP SW480 IC50/EC50,SW480,0.0108 µM
same,Basal_Viability ATP HCT116 IC50/EC50,HCT116,0.01695 µM
same,Basal_Viability ATP Colo 320 IC50/EC50,Colo320,0.054 µM
same,Basal_Viability ATP HT-29 IC50/EC50,HT-29,0.0095 µM
same,Basal_Viability ATP RKO IC50/EC50,RKO,0.0303 µM
same,Basal_Viability ATP SNU-C1 IC50/EC50,SNU-C1,0.0143 µM
same,VEGF_ADSC\ECFC Angio Hoechst NucArea IC50/EC50,[3],6.571 µM
CCCCCCCCCCCCCCCC[N+](C)(C)CC.[Br-] [NCGC00166120-02],VEGF_ADSC\ECFC Angio CD31 TubeArea IC50/EC50,[1],1.1378 µM
same,hNCI-H716 GLP1 Secretion IC50/EC50,NCI-H716 cells; assay number 12,11.7347 µM
same,mSTC-1 GLP1 Secretion IC50/EC50,STC-1 cell line; assay number 13,> 40 µM
same,Basal_Viability ATP DLD-1 IC50/EC50,"DLD-1; assay number 23, basal",0.7403 µM
same,Basal_Viability ATP SW480 IC50/EC50,"SW480; assay number 24, basal",1.2387 µM
same,Basal_Viability ATP HCT116 IC50/EC50,"HCT116; assay number 25, basal",3.1595 µM
same,GSK3b inh pretreated_Viability ATP HCT116 IC50/EC50,[2],2.6825 µM
same,Basal_Viability ATP Colo 320 IC50/EC50,"Colo320; assay number 27, basal",0.0372 µM
same,Basal_Viability ATP HT-29 IC50/EC50,"HT-29; assay number 28, basal",0.4091 µM
same,Basal_Viability ATP RKO IC50/EC50,"RKO; assay number 29, basal",0.9309 µM
same,Basal_Viability ATP SNU-C1 IC50/EC50,"SNU-C1; assay number 30, basal",0.004 µM
same,VEGF_ADSC\ECFC Angio Hoechst NucArea IC50/EC50,[3],7.579 µM
OC1(c2ccc(Cl)c(C(F)(F)F)c2)CCN(CCCC(c2ccc(F)cc2)c2ccc(F)cc2)CC1 [NCGC00165865-02],hNCI-H716 GLP1 Secretion IC50/EC50,NCI-H716 cells; assay number 12,8.448 µM
same,mSTC-1 GLP1 Secretion IC50/EC50,STC-1 cell line; assay number 13,> 40 µM
same,Basal_Viability ATP DLD-1 IC50/EC50,"DLD-1; assay number 23, basal",1.1393 µM
same,Basal_Viability ATP HCT116 IC50/EC50,"HCT116; assay number 25, basal",1.853 µM
same,Basal_Viability ATP Colo 320 IC50/EC50,"Colo320; assay number 27, basal",0.9617 µM
same,Basal_Viability ATP HT-29 IC50/EC50,"HT-29; assay number 28, basal",0.9459 µM
same,Basal_Viability ATP RKO IC50/EC50,"RKO; assay number 29, basal",0.9712 µM
same,Basal_Viability ATP SNU-C1 IC50/EC50,"SNU-C1; assay number 30, basal",0.1675 µM
Clc1ccc(CCC(Cn2ccnc2)Sc2c(Cl)cccc2Cl)cc1 (stereo not drawn) [NCGC00179596-03],VEGF_ADSC\ECFC Angio CD31 TubeArea IC50/EC50,[1],3.5313 µM
same,hNCI-H716 GLP1 Secretion IC50/EC50,NCI-H716 cells; assay number 12,15.9807 µM
same,mSTC-1 GLP1 Secretion IC50/EC50,STC-1 cell line; assay number 13,6.9953 µM
same,Basal_Viability ATP DLD-1 IC50/EC50,DLD-1; assay number 23,1.8367 µM
same,Basal_Viability ATP SW480 IC50/EC50,SW480; assay number 24,1.6936 µM
same,Basal_Viability ATP HCT116 IC50/EC50,"HCT116; assay number 25, basal",2.0642 µM
same,GSK3b inh pretreated_Viability ATP HCT116 IC50/EC50,[2],0.8414 µM
same,Basal_Viability ATP Colo 320 IC50/EC50,Colo320; assay number 27,0.2211 µM
same,Basal_Viability ATP HT-29 IC50/EC50,HT-29; assay number 28,3.009 µM
same,Basal_Viability ATP RKO IC50/EC50,RKO; assay number 29,2.3045 µM
same,Basal_Viability ATP SNU-C1 IC50/EC50,SNU-C1; assay number 30,0.9956 µM
same,VEGF_ADSC\ECFC Angio Hoechst NucArea IC50/EC50,[3],6.743 µM
C[n+]1cc2c3c(ccc2c2ccc4cc5c(cc4c21)OCO5)OCO3 [NCGC00015959-09],VEGF_ADSC\ECFC Angio CD31 TubeArea IC50/EC50,[1],0.5372 µM
same,hNCI-H716 GLP1 Secretion IC50/EC50,NCI-H716 cells,> 40 µM
same,mSTC-1 GLP1 Secretion IC50/EC50,STC-1 cell line,> 40 µM
same,Basal_Viability ATP DLD-1 IC50/EC50,DLD-1,0.5755 µM
same,Basal_Viability ATP SW480 IC50/EC50,SW480,0.3789 µM
same,Basal_Viability ATP HCT116 IC50/EC50,HCT116,0.5253 µM
same,Basal_Viability ATP Colo 320 IC50/EC50,Colo320,0.3498 µM
same,Basal_Viability ATP RKO IC50/EC50,RKO,0.2646 µM
same,Basal_Viability ATP SNU-C1 IC50/EC50,SNU-C1,0.3161 µM
same,VEGF_ADSC\ECFC Angio Hoechst NucArea IC50/EC50,[3],0.9705 µM
